Measured values: patent publication US8642317B2 (priority 2007, dated 2014)

Test system: bacterial isolate 180507-1 (IDAC)
Format: cell-based

Molecule | Reaction (sensitivity of the isolate)
Vancomysin | Sensitive

Test system: bacterial isolate 180507-1 (IDAC)
Remark: another data set of the same source

Molecule | degradation by the selected isolate (deepoxidation and/or deacylation)
CC1=C[C@H]2O[C@@H]3[C@H](O)[C@@H](O)[C@](C)([C@@]2(CO)C[C@@H]1OC(=O)CC(C)C)[C@]31CO1 [T-2 triol] | degraded
CC(=O)OC[C@]12C[C@H](OC(=O)CC(C)C)C(C)=C[C@H]1O[C@@H]1[C@H](O)[C@@H](O)[C@@]2(C)[C@]12CO2 [HT-2 toxin] | degraded
CC1=C[C@H]2O[C@@H]3[C@H](O)[C@@H](O)[C@](C)([C@@]2(CO)[C@H](O)C1=O)[C@]31CO1 [nivalenol] | degraded
CC(=O)O[C@@H]1[C@@H](O)[C@H]2O[C@@H]3C=C(C)C(=O)[C@@H](O)[C@]3(CO)[C@]1(C)[C@]21CO1 [fusarenon X] | degraded
4-diacetoxyscirpenol | degraded
CC(=O)OC[C@]12[C@H](O)C(=O)C(C)=C[C@H]1O[C@@H]1[C@H](O)C[C@@]2(C)[C@]12CO2 [15-acetyldeoxynivalenol] | degraded
CC(=O)OC[C@]12C[C@H](O)C(C)=C[C@H]1O[C@@H]1[C@H](O)[C@@H](OC(C)=O)[C@@]2(C)[C@]12CO2 [neosolaniol] | degraded
CC(=O)OCC12CCC(C)=CC1OC1C(O)C(O)C2(C)C12CO2 (stereo not shown) [15-monoacetoxyscirpenol] | degraded
CC(=O)O[C@@H]1C[C@]2(C)[C@@]3(CO)[C@H](O)C(=O)C(C)=C[C@H]3O[C@H]1[C@@]21CO1 [3-acetyldeoxynivalenol] | degraded
